Assay results taken from patent publication US6579868B1, “Purine derivatives and adenosine A2 receptor antagonists serving as preventives/remedies for diabetes” (Eisai Co., Ltd., priority 1998, dated 2003).
Structures can show the parent of a compound that is named as a salt.

Columns and labels:
[1] = biological target: T1, Human adenosine A1 receptor (Homo sapiens, UniProt P30542); experiment: Adenosine A1 receptor binding experiment (3H-CCPA); conditions: human A1 receptor expressed in CHOK1 membranes
T1 construct: expressed in transfected cells; host or cells: CHOK1 cells (membrane specimen)
T1 sequence (P30542 1-326): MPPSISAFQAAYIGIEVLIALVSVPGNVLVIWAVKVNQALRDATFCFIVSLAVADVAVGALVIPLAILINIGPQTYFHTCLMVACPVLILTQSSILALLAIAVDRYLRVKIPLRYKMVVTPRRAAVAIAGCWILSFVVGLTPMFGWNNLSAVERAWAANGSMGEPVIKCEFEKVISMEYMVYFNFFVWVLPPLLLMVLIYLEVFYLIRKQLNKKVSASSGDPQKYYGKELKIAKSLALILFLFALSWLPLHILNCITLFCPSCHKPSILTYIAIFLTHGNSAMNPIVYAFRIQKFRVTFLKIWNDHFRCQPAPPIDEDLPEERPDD
Procedure: Human adenosine A1 receptor cDNA was subjected to an over-expression in CHOK1 cells and its membrane specimen was suspended in an incubation buffer (20 mM HEPES, 10 mM MgCl2 and 100 mM NaCl; pH 7.4) to make the concentration 66.7 μg/ml. To 0.45 ml of this membrane specimen were added 0.025 ml of tritium-labeled chlorocyclopentyl adenosine (60 nM ^3H-CCPA; 30 Ci/mmol) and 0.025 ml of the compound to be tested. The solution of the compound to be tested was prepared in such a manner that, firstly, the compound was dissolved in DMSO to make 20 mM concentration and then successively diluted each 10-fold using an incubation buffer. The mixture was allowed to stand at 30° C. for 120 minutes, subjected to a quick suction on a glass fiber filter (GF/B; manufactured by Whatman) and immediately washed with 5 ml of ice-cooled 50mM Tris-HCl buffer twice. After that, the glass fiber filter was transferred to a vial bottle, a scintillator was added and the radioactivity on the filter was measured by a liquid scintillation counter. Calculation of the inhibition rate of the test compound to the receptor bond (^3H-CCPA) was carried out by the following expression and, based upon that, IC50 was calculated.
Inhibition Rate (%)=[1−{(Binding amount in the presence of drug-Non-specific binding amount)/(Total binding amount-Non-specific binding amount)}]×100
Total binding amount is a ^3H-CCPA binding radioactivity in the absence of the test compound.
Non-specific binding amount is a ^3H-CCPA binding radioactivity in the presence of 100 μM of RPIA.
Binding amount in the presence of drug is a ^3H-CCPA binding radioactivity in the presence of the test compound of various concentrations.
The inhibition constant (Ki value) in Table was calculated from Cheng-Prusoff's expression.

[2] = test system: spontaneous diabetic mice (KK-A^y/Ta Jcl); experiment: Action to hyperglycemia of spontaneous diabetic mice (KK-A^y/Ta Jcl), single oral administration; type: in vivo, mouse
Procedure: Animals: Five male KK-A^y/Ta Jcl mice for each group (purchased from Nippon Clair)
Preparation and Administration of Test Compound: A test compound in a dose as shown in Table 2 was suspended in a 0.5% aqueous solution of methyl cellulose and was orally administered in a dose of 10 ml/kg.
Collection of Blood Samples and Determination of Blood Sugar: Blood was collected from tail vein immediately before administration of the test compound and also five hours after the administration and blood sugar was determined.
(§1) Method: Tail vein of a mouse was injured by a razor without an anesthetization to bleed slightly. The blood (15 μl) was collected and immediately mixed with 135 μl of a 0.6 M perchloric acid. Glucose in the supernatant obtained by a centrifugal separation (at 1500 g for 10 minutes at 4° C. using a cooling centrifuge GS-6KR of Beckmann) was determined by a Glucose CII Test Wako (Wako Pure Chemicals).
The result is shown in terms of “(% ratio of the blood sugar after 5 hours from the administration to the blood sugar before the administration)±(standard error)”. The data were subjected to a one-way layout analysis of variance and then subjected to a multiple comparison of a Dunnett type. The case where p<0.05 was judged to be that a significant difference was available.
Animals: Five male KK-A^y/Ta Jcl mice for each group (introduced from Nippon Clair)
Preparation and Administration of Test Compound: A test compound in a dose shown in Table 6 was suspended in a 0.5% aqueous solution of methyl cellulose and was orally administered in a dose of 10 ml/kg.
as §1, with “vein of mouse was” for “vein of a mouse was”
The result is shown in terms of “(% ratio of the blood sugar after 5 hours from the administration to the blood sugar before the administration)±(standard error)”. The data were subjected to a one-way layout analysis of variance and then subjected to a multiple comparison of Dunnett type. The case where p<0.05 was judged that a significant difference was available.

[3] = biological target: T2, Human adenosine A2b receptor (Homo sapiens, UniProt P29275); experiment: Suppression of NECA-stimulated cAMP production in adenosine A2b receptor expressed CHOK1 cells; type: cell-based; conditions: NECA 30 nM
T2 construct: expressed in transfected cells; host or cells: CHOK1 cells
T2 sequence (P29275 1-332): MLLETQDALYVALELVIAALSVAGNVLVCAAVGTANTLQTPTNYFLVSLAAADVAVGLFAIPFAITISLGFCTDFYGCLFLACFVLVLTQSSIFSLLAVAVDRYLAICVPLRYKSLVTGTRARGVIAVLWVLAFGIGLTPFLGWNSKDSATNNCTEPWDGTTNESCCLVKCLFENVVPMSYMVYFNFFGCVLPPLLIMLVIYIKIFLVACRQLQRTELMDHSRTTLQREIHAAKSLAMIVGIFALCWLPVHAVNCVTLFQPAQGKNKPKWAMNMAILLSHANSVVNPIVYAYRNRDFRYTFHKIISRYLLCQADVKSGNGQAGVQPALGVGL
Procedure: Human adenosine A2b receptor cDNA was over-expressed in CHOK1 cells. […] Affinity of the test compound to the A2b receptor was evaluated in which the index used was the degree of suppression of the amount of cAMP produced by stimulation of NECA (30 nM) which was an adenosine agonist in the presence of the test compound. Thus, after washing with 2 ml/well of an incubation buffer (Krebs solution; pH7.4) twice, a pre-incubation was carried out at 0.5 ml/well for 30 minutes. […] After 15 minutes, the reaction was stopped by substituting 0.1N HCl (300 μl/well) for the reaction solution. Measurement of cAMP was carried out using an Amersham cAMP EIA Kit.
Calculation of the suppression rate of the test compound to the NECA-stimulated cAMP production was done by the following expression.
Inhibition Rate (%)=[1−{(cAMP amount in the presence of NECA and test compound-cAMP amount in the case of incubation buffer only)/(cAMP amount stimulated only by NECA-cAMP amount in the case of incubation buffer only)}]×100.
IC50 […]was calculated from the above.

[4] = Glucose tolerance test (impaired glucose tolerance); conditions: in vivo
[5] = biological target: T3, adenosine A2a receptor (Homo sapiens, UniProt P29274); experiment: Adenosine A2a receptor binding experiment (3H-CGS21680); conditions: A2a receptor membrane specimen
T3 construct: purchased Receptor Biology, Inc
T3 sequence (P29274 whole entry): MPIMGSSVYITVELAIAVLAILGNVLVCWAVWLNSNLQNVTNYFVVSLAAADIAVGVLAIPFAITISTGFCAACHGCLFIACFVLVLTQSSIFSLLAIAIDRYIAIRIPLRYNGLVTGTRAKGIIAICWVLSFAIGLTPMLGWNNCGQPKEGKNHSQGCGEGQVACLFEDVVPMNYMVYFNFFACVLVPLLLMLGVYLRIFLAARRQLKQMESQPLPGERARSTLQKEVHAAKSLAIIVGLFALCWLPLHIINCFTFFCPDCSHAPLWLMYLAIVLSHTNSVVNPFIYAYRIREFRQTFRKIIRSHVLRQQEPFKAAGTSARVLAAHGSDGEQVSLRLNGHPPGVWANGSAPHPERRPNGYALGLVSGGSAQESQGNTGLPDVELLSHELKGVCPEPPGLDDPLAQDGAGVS
Procedure: A membrane specimen prepared by an over-expression of adenosine A2a receptor was purchased from Receptor Biology, Inc. and adenosine A2a receptor binding experiments were carried out using that. […] To 0.45 ml of this membrane specimen were added 0.025 ml of tritium-labeled ^3H-CGS21680 (500 nM; 30 Ci/mmol) and 0.025 ml of the test compound. The solution of the test compound was prepared in such a manner that, firstly, the compound was dissolved in DMSO to make 20 mM concentration and then successively diluted each 10-fold using an incubation buffer. […] After that, the glass fiber filter was transferred to a vial bottle, a scintillator was added and the radioactivity on the filter was measured by a liquid scintillation counter. Calculation of the inhibition rate of the test compound to the receptor bond (^3H-CGS21680) of A2a was carried out by the following expression and, based upon that, IC50 was calculated. […]
Total binding amount is a ^3H-CGS21680 binding radioactivity in the absence of the test compound.
Non-specific binding amount is a ^3H-CGS21680 binding radioactivity in the presence of 100 μM of RPIA.
Binding amount in the presence of drug is a ^3H-CGS21680 binding radioactivity in the presence of the test compound of various concentrations.

SMILES	Ki [1]	IC50 [3]	other results
CCn1c(=O)c2c(nc(/C=C/c3ccc(OC)c(OC)c3)n2C)n(CC)c1=O	> 10000 nM		
CCn1c(-c2cccc(F)c2)nc2c(N)nc(C#CC3(O)CCC3)nc21 [Compound A]		28 nM	% ratio of the blood sugar after 5 hours from the administration to the blood sugar before the administration ± standard error ([2]; Table 6-1, 10 mg/kg oral, administered in a form of sulfate, solvent group 72.4 ± 4.4): 47.8 ± 4.8%
Cn1c(-c2cccc(F)c2)nc2c(N)nc(C#CC3(O)CCCC3)nc21 [Compound B]		70 nM	
Fc1cccc(-c2nc3cccnc3n2-c2ccncc2)c1 [Compound C, 2-(3-Fluorophenyl)-(4-pyridyl)-3H-imidazo[4,5-b]pyridine Hydrochloride, reference compound]		100 nM	% ratio of the blood sugar after 5 hours from the administration to the blood sugar before the administration ± standard error ([2]; Table 6-2, 30 mg/kg oral, solvent group 69.8 ± 2.3): 48.5 ± 3.4%
O=C(/C=C/c1c(-c2ccccc2)nn2ccccc12)N1CCCC[C@@H]1CCO [FK453, reference compound]			hypoglycemic action in the present diabetic models (in words) ([2]; even at the dose of 100 mg/kg): no hypoglycemic action was noted; glucose tolerance improving action in glucose tolerance test (in words) [4]: no glucose tolerance improving action was noted
CCCn1c(=O)c2c(nc(/C=C/c3ccc(OC)c(OC)c3)n2C)n(CCC)c1=O [KF17837]		1360 nM	
CCn1c(-c2cccc(F)c2)nc2c(N)nc(C#CC3(O)CCC3)nc21 [drawing 259]	24 nM		Ki [5]: 2 nM
Cn1c(-c2cccc(F)c2)nc2c(N)nc(C#CC3(O)CCCC3)nc21 [drawing 260]	19 nM		
Fc1cccc(-c2nc3cccnc3n2-c2ccncc2)c1 [drawing 261]	54 nM		Ki [5]: 750 nM
CCCn1c(=O)c2c(nc(/C=C/c3ccc(OC)c(OC)c3)n2C)n(CCC)c1=O [drawing 263]	> 10000 nM		
